How the values were obtained:
[1] = tested on: POAAN; assay: B. Herbicidal post-emergence action on harmful plants (Tables B); assay type: in vivo, Poa annua
How it was run: (§1)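 Greenhouse weeds grown in sandy loam were sprayed post-emergence at the one-leaf stage, 2-3 weeks after sowing. Compounds were applied as WP or EC in water with 0.5% additive at 600 L/ha, at 1280 g/ha or below. Visual damage was rated after about 3 weeks versus untreated plants (0-100%).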

[2] = tested on: SETVI; assay: A. Herbicidal pre-emergence action on harmful plants (Tables A); assay type: in vivo, Setaria viridis; conditions: visual grading after ca. 3 weeks vs untreated controls, 100% = plants have died off, 0% = as control plants
How it was run: (§2)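 Values are visual percent damage relative to untreated controls, scored ca. 3 weeks after the compound was sprayed on the covering soil of sown pots (sandy loam) at rates up to 1280 g/ha, formulated as WP or EC with 0.5% additive.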

[3] = tested on: ALOMY; assay: as above; assay type: in vivo, Alopecurus myosuroides
How it was run: as §2

[4] = tested on: POAAN; assay: as above; assay type: in vivo, Poa annua
How it was run: as §2

[5] = tested on: ABUTH; assay: B. Herbicidal post-emergence action on harmful plants (Tables B); assay type: in vivo, Abutilon theophrasti; conditions: application rate 1280 g/ha; Table B1a
Protocol: (§3) Seeds of mono- and dicotyledonous weed plants were placed in plastic pots in sandy loam soil (doubly sown with in each case one species of mono- or dicotyledonous weed plants per pot), covered with soil and cultivated in a greenhouse under controlled growth conditions. 2 to 3 weeks after sowing, the test plants were treated at the one-leaf stage. The compounds of the invention, formulated in the form of wettable powders (WP) or as emulsion concentrates (EC), were applied onto the green parts of the plants as aqueous suspension or emulsion with addition of 0.5% additive at a water application rate of 600 liters per hectare (converted). After the test plants had been kept in the greenhouse under optimum growth conditions for about 3 weeks, the activity of the preparations was rated visually in comparison to untreated controls. For example, 100% activity = the plants have died, 0% activity = like control plants. Tables B1 to B12, below, show the effects of selected compounds of the general formula (I) according to table 1 on various harmful plants and an application rate corresponding to 1280 g/ha or below obtained by the experimental procedure mentioned above. Table B1a: post-emergence activity at 1280g/ha against ABUTH in %

[6] = tested on: ECHCG; assay: as above; assay type: in vivo, Echinochloa crus-galli; conditions: application rate 1280 g/ha; Table B2a
How it was run: as §1

[7] = tested on: MATIN; assay: as above; assay type: in vivo, Matricaria inodora
Protocol: as §3

[8] = tested on: ECHCG; assay: A. Herbicidal pre-emergence action on harmful plants (Tables A); assay type: in vivo, Echinochloa crus-galli; conditions: visual grading after ca. 3 weeks vs untreated controls, 100% = plants have died off, 0% = as control plants
How it was run: as §2

[9] = tested on: DIGSA; assay: as above; assay type: in vivo, Digitaria sanguinalis
How it was run: as §2

[10] = tested on: STEME; assay: as above; assay type: in vivo, Stellaria media; conditions: visual grading after ca. 3 weeks vs untreated controls, 100% = plants have died off, 0% = as control plants
How it was run: as §2

[11] = tested on: MATIN; assay: as above; assay type: in vivo, Matricaria inodora; conditions: visual grading after ca. 3 weeks vs untreated controls, 100% = plants have died off, 0% = as control plants
How it was run: as §2

[12] = tested on: VERPE; assay: as above; assay type: in vivo, Veronica persica; conditions: application rate 1280 g/ha; Table A11
Description: Seeds of mono- and dicotyledonous weed plants were sown in plastic pots (double sowings with one species of mono- and one species of dicotyledonous weed plants per pot), in sandy loam, and covered with soil. The compounds according to the invention, formulated in the form of wettable powders (WP) or as emulsifiable concentrates (EC), were applied to the surface of the covering soil as aqueous suspension or emulsion, with the addition of 0.5% of an additive, at an application rate of 6001 of water per hectare (converted). Following treatment, the pots were placed in a greenhouse and kept under optimum growth conditions for the test plants. The visual grading of the damage to the test plants was carried out after ca. 3 weeks in comparison to untreated controls (herbicidal effect in percent (%): 100% effect = plants have died off, 0% effect = as control plants). Tables A1 to A12, below, show the effects of selected compounds of the general formula (I) according to table 1 on various harmful plants and an application rate corresponding to 1280 g/ha or below obtained by the experimental procedure mentioned above. Table A1: pre-emergence activity at 1280g/ha against ABUTH in %

[13] = tested on: VERPE; assay: B. Herbicidal post-emergence action on harmful plants (Tables B); assay type: in vivo, Veronica persica; conditions: application rate 1280 g/ha; Table B11a
How it was run: as §1

[14] = tested on: DIGSA; assay: as above; assay type: in vivo, Digitaria sanguinalis; conditions: application rate 1280 g/ha; Table B12a
Protocol: as §3

[15] = tested on: AMARE; assay: A. Herbicidal pre-emergence action on harmful plants (Tables A); assay type: in vivo, Amaranthus retroflexus; conditions: application rate 1280 g/ha; visual grading after ca. 3 weeks vs untreated controls; 100% = plants have died off, 0% = as control plants
How it was run: as §2

[16] = tested on: LOLRI; assay: as above; assay type: in vivo, Lolium rigidum; conditions: visual grading after ca. 3 weeks vs untreated controls, 100% = plants have died off, 0% = as control plants
How it was run: as §2

COCc1nn(C)cc1C(=O)N1CCCC1Cc1cccc(F)c1F (racemic) [Example I-077]
post-emergence activity against POAAN ([1]; application rate 320 g/ha, Table B7b): 90%
post-emergence activity against POAAN ([1]; application rate 1280 g/ha, Table B7a): 90%
pre-emergence activity against SETVI ([2]; application rate 320 g/ha): 90%
pre-emergence activity against SETVI ([2]; application rate 1280 g/ha): 90%
pre-emergence activity against ALOMY ([3]; application rate 320 g/ha, Table A9b): 90%
pre-emergence activity against ALOMY ([3]; application rate 1280 g/ha, Table A9a): 90%
pre-emergence activity against POAAN ([4]; application rate 80 g/ha, Table A7c): 100%
pre-emergence activity against POAAN ([4]; application rate 320 g/ha, Table A7b): 100%
pre-emergence activity against POAAN ([4]; application rate 1280 g/ha, visual grading after ca. 3 weeks vs untreated controls, 100% = plants have died off, 0% = as control plants): 100%
post-emergence activity against ABUTH [5]: 90%
post-emergence activity against ECHCG [6]: 90%
post-emergence activity against MATIN ([7]; application rate 320 g/ha, Table B4b): 90%
post-emergence activity against MATIN ([7]; application rate 1280 g/ha, Table B4a): 90%
pre-emergence activity against ECHCG ([8]; application rate 80 g/ha): 90%
pre-emergence activity against ECHCG ([8]; application rate 320 g/ha): 90%
pre-emergence activity against ECHCG ([8]; application rate 1280 g/ha): 100%
pre-emergence activity against DIGSA ([9]; application rate 320 g/ha, Table A12b): 100%
pre-emergence activity against DIGSA ([9]; application rate 1280 g/ha, Table A12a): 100%
pre-emergence activity against STEME ([10]; application rate 80 g/ha): 90%
pre-emergence activity against STEME ([10]; application rate 320 g/ha): 90%
pre-emergence activity against STEME ([10]; application rate 1280 g/ha): 90%
pre-emergence activity against MATIN ([11]; application rate 320 g/ha): 90%
pre-emergence activity against MATIN ([11]; application rate 1280 g/ha): 90%
pre-emergence activity against VERPE [12]: 90%
post-emergence activity against VERPE [13]: 90%
post-emergence activity against DIGSA [14]: 90%
pre-emergence activity against AMARE [15]: 90%
pre-emergence activity against LOLRI ([16]; application rate 320 g/ha): 90%
pre-emergence activity against LOLRI ([16]; application rate 1280 g/ha): 100%

Source: patent EP4417602A1, “SUBSTITUTED PYRAZOLE CARBOXAMIDES, SALTS THEREOF AND THEIR USE AS HERBICIDALLY ACTIVE SUBSTANCES” (Bayer AG, priority 2023, dated 2024)
